# Laboratory results published in ChEMBL document CHEMBL1201862, “PubChem BioAssay data set” (2004).
#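 Step 1: Grow cells in 96-well plates. Step 2: Expose to compound for 48 hours at 5 concentrations. Step 3: Interpolate endpoints linearly; if unreached, use highest concentration. GI50 = concentration required for 50% inhibition of growth.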 Calls of active or inactive are those of the source. Cut-off read from the data, not from the text of the source: active = GI50 up to about 1.1 µM and inactive = higher.
# Key:
# Assay in all cases: inhibition of tumour cell growth, NCI panel, 48 h
# MCF7 = system: MCF7
# LOX IMVI = system: LOX IMVI
# DLD-1 = system: DLD-1
# SNB-78 = system: SNB-78
# HCT-116 = system: HCT-116
# OVCAR-4 = system: OVCAR-4
# HT-29 = system: HT-29
# U-251 = system: U-251
# OVCAR-8 = system: OVCAR-8
# SK-OV-3 = system: SK-OV-3
# NCI-H226 = system: NCI-H226
# SNB-75 = system: SNB-75
# TK-10 = system: TK-10
# K562 = system: K562
# EKVX = system: EKVX
# KM12 = system: KM12
# SK-MEL-28 = system: SK-MEL-28
# 786-0 = system: 786-0
# MOLT-4 = system: MOLT-4
# UACC-62 = system: UACC-62
# SR = system: SR
# DMS-114 = system: DMS-114
# COLO 205 = system: COLO 205
# OVCAR-5 = system: OVCAR-5
# OVCAR-3 = system: OVCAR-3
# LXFL 529 = system: LXFL 529
# NCI-H460 = system: NCI-H460
# A549 = system: A549
# XF498 = system: XF498
# UO-31 = system: UO-31
# SF-268 = system: SF-268
# M19-MEL = system: M19-MEL
# M14 = system: M14
# SN12C = system: SN12C
# SF-295 = system: SF-295
# HL-60 = system: HL-60
# KM-20L2 = system: KM-20L2
# SK-MEL-2 = system: SK-MEL-2
# HOP-62 = system: HOP-62
# DMS-273 = system: DMS-273
# CCRF-CEM = system: CCRF-CEM
# SF-539 = system: SF-539
# SNB-19 = system: SNB-19
# RXF 393 = system: RXF 393
# NCI-H23 = system: NCI-H23
# SW-620 = system: SW-620
# ACHN = system: ACHN
# NCI-H522 = system: NCI-H522
# IGROV-1 = system: IGROV-1
# HCT-15 = system: HCT-15
# Malme-3M = system: Malme-3M
# RPMI-8226 = system: RPMI-8226
# SK-MEL-5 = system: SK-MEL-5
compound,measurement,setting,value
COc1ccc2c3c(c4cc(OC)c(OC)cc4c2c1)C[C@H]1CCCCN1C3 [CRYPTOPLEURINE],GI50,MCF7,0.005 µM (active)
same,GI50,LOX IMVI,0.005 µM (active)
same,GI50,DLD-1,0.005 µM (active)
same,GI50,SNB-78,0.005 µM (active)
same,GI50,HCT-116,0.005 µM (active)
same,GI50,OVCAR-4,0.005 µM (active)
same,GI50,HT-29,0.005 µM (active)
same,GI50,U-251,0.005 µM (active)
same,GI50,OVCAR-8,0.005 µM (active)
same,GI50,SK-OV-3,0.005 µM (active)
CC(=O)Nc1cc2c(s1)CCC1CC(=O)NN=C21 (stereo not given),GI50,NCI-H226,> 100 µM (inactive)
same,GI50,SNB-75,26.5 µM (inactive)
same,GI50,TK-10,> 100 µM (inactive)
same,GI50,K562,> 100 µM (inactive)
same,GI50,EKVX,> 100 µM (inactive)
same,GI50,KM12,> 100 µM (inactive)
same,GI50,SK-MEL-28,> 100 µM (inactive)
same,GI50,786-0,> 100 µM (inactive)
same,GI50,MOLT-4,> 100 µM (inactive)
same,GI50,UACC-62,> 100 µM (inactive)
same,GI50,SR,> 100 µM (inactive)
same,GI50,DMS-114,> 100 µM (inactive)
same,GI50,LOX IMVI,> 100 µM (inactive)
same,GI50,COLO 205,> 100 µM (inactive)
same,GI50,OVCAR-5,> 100 µM (inactive)
same,GI50,OVCAR-3,> 100 µM (inactive)
same,GI50,SNB-78,> 100 µM (inactive)
same,GI50,LXFL 529,> 100 µM (inactive)
same,GI50,HCT-116,> 100 µM (inactive)
same,GI50,OVCAR-4,> 100 µM (inactive)
same,GI50,NCI-H460,> 100 µM (inactive)
same,GI50,A549,> 100 µM (inactive)
same,GI50,XF498,> 100 µM (inactive)
same,GI50,UO-31,> 100 µM (inactive)
same,GI50,SF-268,> 100 µM (inactive)
same,GI50,M19-MEL,> 100 µM (inactive)
same,GI50,M14,> 100 µM (inactive)
same,GI50,SN12C,> 100 µM (inactive)
same,GI50,SF-295,> 100 µM (inactive)
same,GI50,HL-60,> 100 µM (inactive)
same,GI50,KM-20L2,> 100 µM (inactive)
same,GI50,SK-MEL-2,> 100 µM (inactive)
same,GI50,HOP-62,> 100 µM (inactive)
same,GI50,HT-29,> 100 µM (inactive)
same,GI50,DMS-273,> 100 µM (inactive)
same,GI50,U-251,> 100 µM (inactive)
same,GI50,CCRF-CEM,> 100 µM (inactive)
same,GI50,SF-539,> 100 µM (inactive)
same,GI50,SNB-19,> 100 µM (inactive)
same,GI50,RXF 393,> 100 µM (inactive)
same,GI50,NCI-H23,> 100 µM (inactive)
same,GI50,SW-620,> 100 µM (inactive)
same,GI50,ACHN,> 100 µM (inactive)
same,GI50,NCI-H522,> 100 µM (inactive)
same,GI50,IGROV-1,> 100 µM (inactive)
same,GI50,HCT-15,> 100 µM
same,GI50,Malme-3M,> 100 µM (inactive)
same,GI50,RPMI-8226,> 100 µM (inactive)
same,GI50,OVCAR-8,> 100 µM (inactive)
same,GI50,SK-MEL-5,> 100 µM (inactive)
